Experimental data as given in US20250099483A1, “THERAPEUTIC COMPOUNDS” (priority 2021, published 2025).

Tests used:
Type in all cases: in vivo, human (healthy male volunteers)
[1] = Phase 1 trial Part I: plasma pharmacokinetics after single ascending oral doses
Procedure: (§1) A Phase 1, randomized, double-blind, placebo-controlled clinical trial was performed to assess the safety and pharmacokinetics (PK) of Compound 1 after single, escalating, and repeated oral doses in healthy male volunteers.
(§2) The primary objective was to assess the safety of escalating single oral doses of Compound 1 compared with placebo in healthy male volunteers. The secondary objective was to measure plasma pharmacokinetic (PK) parameters of Compound 1.
(§3) 4-[(7-methoxy-2,3-dihydro-1,4-benzothiazepin-4(5H)yl)methyl]benzoic acid hemi-fumarate (Compound 1) was administered in a gastro-resistant tablet according to EXAMPLE 5. The formulation contained 20 mg, 40 mg, or 200 mg Compound 1 (based on the mass of 4-[(7-methoxy-2,3-dihydro-1,4-benzothiazepin-4(5H)yl)methyl]benzoic acid). Placebo tablet according to Example 2 was used as comparator.
In part I, participants from groups A, B, C, D, and E received single doses of 40 mg, 80 mg, 160 mg, 240 mg, or 400 mg Compound 1, respectively, or corresponding placebo. Forty subjects completed part I: 30 active (6 per cohort) and 10 placebo.
In Part I, blood samples were collected from each participant as follows: at pre-dose, then 0.25, 0.5, 1, 1.5, 2, 3, 4, 5, 6, 8, 10, 12, 16, 24, 36, 48, 60, 72, and 96 hours after dosing.
(§4) The area under the plasma concentration-time curve was calculated using a combined linear and logarithmic trapezoidal rule. The interpolation was linear in the constant and ascending parts of the plasma concentration-time profiles. The interpolation was logarithmic in the descending parts.
For Part I, to assess the dose effect on the PK of Compound 1, the mean AUClast, and Cmax for each dose were calculated and were plotted by dose.
(§5) Plasma and muscle samples were analyzed by LC-MS/MS method.

[2] = Phase 1 trial Part II: plasma pharmacokinetics after repeated once-daily oral doses over 14 days; conditions: for Steady-state attained at day: once daily
Procedure: as §1
as §2, with “repeated” for “single”, “1 over 14 days” for “1”, “1 and to assess the concentration of Compound 1 in quadriceps muscle.” for “1.”
as §3
In Part II, participants from groups I, J, K, and L received repeated doses of 20 mg, 60 mg, 120 mg, or 240 mg Compound 1, respectively, or corresponding placebo once daily over a period of 14 days. Forty-one subjects completed Part II: 7/7/8/7 for cohorts I, J, K, L, and twelve placebo.
In Part II, blood samples were collected from each participant as follows: Day 1:12 samples from the pre-morning dose up to 16 h (pre-dose, 0.25, 0.5, 1, 1.5, 2, 3, 4, 6, 8, 12, and 16 h), Days 2-13:12 samples at pre-doses (i.e., morning dose); Day 14:16 samples from the pre-morning dose up to 96 (D14 pre-dose, 0.25, 0.5, 1, 1.5, 2, 3, 4, 6, 8, 12, and 16 h and D15-18:1 sample before theoretical morning dosing.
as §4
For Part II, the same approach was used on AUC, (Day 14) respectively AUC24 (Day 1), and Cmax.
as §5

[3] = Phase 1 trial Part II: concentration in quadriceps muscle biopsy on Day 13; conditions: for Total Cpd I concentration / Unbound Cpd I concentration: quadriceps muscle, Day 13, at least 3 h post dose, median (range); for Kp: geom. mean (geom. % CV)
Procedure: The primary objective was to assess the safety of escalating repeated oral doses of Compound 1 over 14 days compared with placebo in healthy male volunteers. The secondary objective was to measure plasma pharmacokinetic (PK) parameters of Compound 1 and to assess the concentration of Compound 1 in quadriceps muscle. For Study part II (for all groups), Concentrations of Compound 1 were determined in muscle by performing muscle biopsy on quadriceps muscle on day 13, at least 3 hours after morning dose. Plasma and muscle samples were analyzed by LC-MS/MS method. Muscle biopsy was performed to assess the concentration of Compound 1 in quadriceps muscle. The biopsy was performed on Day 13 at 3 hours post dose at least. Table 10 summarizes the ratios of unbound respective total concentration at Day 13 at 3 hours post dose divided by the plasma concentration on Day 14 at 3 hours post dose.

[4] = Phase 1 trial: safety and tolerability of single and repeated oral doses
Procedure: as §1, §2
as §2, with “repeated” for “single”, “1 over 14 days” for “1”, “1 and to assess the concentration of Compound 1 in quadriceps muscle.” for “1.”

COc1ccc2c(c1)CN(Cc1ccc(C(=O)O)cc1)CCS2.O=C(O)/C=C/C(=O)O [Compound 1, 4-[(7-methoxy-2,3-dihydro-1,4-benzothiazepin-4(5H)yl)methyl]benzoic acid hemifumarate]
dose proportionality of AUClast and Cmax ([1]; Part I, graphical inspections): dose proportionality | inter-individual variability across treatment groups ([1]; Part I, single oral doses): low | linearity of pharmacokinetics with dose ([1]; Part I, single oral doses): No evidence of non-linearity with the dose | tlag ([1]; after single oral administration at 20 to 400 mg, gastro-resistant tablet): less than 2 hours | absorption ([1]; single oral administration, after a lag time consistent with the gastro-resistant tablet): rapid absorption | Steady-state attained at day ([2]; 240 mg cohort): 5 | Steady-state attained at day ([2]; 20, 60, and 120 mg cohorts): 4 | inter-individual variability (Cmax and AUC24) ([2]; Part II, 20, 60, 120, and 240 mg/d): low | Steady-state attained after days of daily treatment ([2]; Part II, across cohorts 20-240 mg once daily): 3 to 7 days | dose proportionality of AUCτ resp. AUC0-24 and Cmax ([2]; Part II, graphical inspections): dose proportionality | accumulation ratios for Cmax and AUC24 ([2]; after 14-day repeated administrations of 20, 60, 120, and 240 mg/d): 1.4-1.8 | Tmax ([2]; male, human, plasma, after 14-days of repeated once daily oral administrations of 20 mg (so in the source), read-out: median Tmax): 3 to 3.5 h | linearity of pharmacokinetics with time and dose ([2]; single and repeat dose studies): No evidence of non-linearity with the time and dose | dose proportionality of median unbound and total concentrations in quadriceps muscle ([3]; Part II, 20-240 mg once daily): dose proportional | Kp at 3 h ([3]; male, human, quadriceps muscle / plasma, oral, summary, within the dose range 20-240 mg): 0.04 to 0.08 | Total Cpd I concentration ([3]; 20 mg once daily (n=7)): 171 (141-341) ng/g | Unbound Cpd I concentration ([3]; 20 mg once daily (n=7)): 22.0 (17.5-41.5) ng/g | Total Cpd I concentration ([3]; 60 mg once daily (n=7)): 489 (273-693) ng/g | Unbound Cpd I concentration ([3]; 60 mg once daily (n=7)): 80.3 (49.7-124) ng/g | Total Cpd I concentration ([3]; 120 mg once daily (n=8)): 913 (614-1207) ng/g | Unbound Cpd I concentration ([3]; 120 mg once daily (n=8)): 104 (63.2-196) ng/g | Total Cpd I concentration ([3]; 240 mg once daily (n=7)): 1480 (890-1745) ng/g | Unbound Cpd I concentration ([3]; 240 mg once daily (n=7)): 242 (196-452) ng/g | Kpu ([3]; summary, within the dose range 20-240 mg): 0.008-0.01 | Kp ([3]; total muscle concentration Day 13, 3 h post dose / plasma concentration Day 14, 3 h post dose, 20 mg once daily): 0.0808 (65.3) (ng/g)/(ng/mL) | Kp ([3]; total muscle concentration Day 13 / plasma concentration Day 14, 3 h post dose, 60 mg once daily): 0.0640 (22.6) (ng/g)/(ng/mL) | Kp ([3]; total muscle concentration Day 13 / plasma concentration Day 14, 3 h post dose, 120 mg once daily): 0.0636 (49.9) (ng/g)/(ng/mL) | Kp ([3]; total muscle concentration Day 13 / plasma concentration Day 14, 3 h post dose, 240 mg once daily): 0.0440 (30.0) (ng/g)/(ng/mL) | tolerability ([4]; at the doses and dose regimens tested): well tolerated | serious adverse events ([4]; single doses and 14-day repeated doses tested): No serious adverse events were reported
